Assay results published in ChEMBL document CHEMBL1131414, “Dual D2-receptor and beta2-adrenoceptor agonists for the treatment of airway diseases. 1. Discovery and biological evaluation of some 7-(2-aminoethyl)-4-hydroxybenzothiazol-2(3H)-one analogues” (J Med Chem, 1998).
Activity calls are given as the source filed them. The rule behind the calls is not given here.

Key:
[1] = molecular target: Beta-2 adrenergic receptor (Cavia porcellus) (UniProt Q8K4Z4); assay: Tested in vitro for binding activity to Beta-2 adrenergic receptor in guinea pig trachea (GPT).; format: tissue-based
[2] = molecular target: Adrenergic receptor alpha-1 (Homo sapiens) (UniProt P35348+P25100+P35368); assay: Tested in vitro for binding activity to Alpha-1 adrenergic receptor in field stimulated rabbit ear artery (REA).; conditions: Oryctolagus cuniculus; target entry is the homologue from another species
[3] = molecular target: D(2) dopamine receptor (Bos taurus) (UniProt P20288); assay: Tested in vitro for binding activity to Dopamine receptor D2 in bovine pituitary membranes (D2-LB); format: cell membranes
[4] = molecular target: D(2) dopamine receptor (Homo sapiens) (UniProt P14416); assay: Tested in vitro for binding activity to Dopamine receptor D2 in field stimulated rabbit ear artery (D2-REA); f denotes 'Data compromised by high […] agonist activity'; conditions: Oryctolagus cuniculus; target entry is the homologue from another species
[5] = molecular target: D(2) dopamine receptor (Homo sapiens) (UniProt P14416); assay: Tested in vitro for binding activity to Dopamine receptor D2 in field stimulated rabbit ear artery (D2-REA).; conditions: Oryctolagus cuniculus; target entry is the homologue from another species

D(2) dopamine receptor (Bos taurus), sequence (P20288 whole entry): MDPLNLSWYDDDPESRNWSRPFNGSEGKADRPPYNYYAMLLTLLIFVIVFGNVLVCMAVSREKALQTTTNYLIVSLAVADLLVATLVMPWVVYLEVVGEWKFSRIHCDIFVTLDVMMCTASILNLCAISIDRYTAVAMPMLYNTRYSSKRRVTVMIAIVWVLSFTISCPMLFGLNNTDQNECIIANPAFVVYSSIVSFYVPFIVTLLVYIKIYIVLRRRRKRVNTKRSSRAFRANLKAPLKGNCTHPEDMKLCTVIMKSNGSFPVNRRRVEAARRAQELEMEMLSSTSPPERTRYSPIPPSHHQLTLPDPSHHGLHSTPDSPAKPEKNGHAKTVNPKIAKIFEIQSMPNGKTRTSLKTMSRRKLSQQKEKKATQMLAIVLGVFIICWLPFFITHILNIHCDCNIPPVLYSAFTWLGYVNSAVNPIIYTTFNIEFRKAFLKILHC
D(2) dopamine receptor (Homo sapiens), sequence (P14416 whole entry): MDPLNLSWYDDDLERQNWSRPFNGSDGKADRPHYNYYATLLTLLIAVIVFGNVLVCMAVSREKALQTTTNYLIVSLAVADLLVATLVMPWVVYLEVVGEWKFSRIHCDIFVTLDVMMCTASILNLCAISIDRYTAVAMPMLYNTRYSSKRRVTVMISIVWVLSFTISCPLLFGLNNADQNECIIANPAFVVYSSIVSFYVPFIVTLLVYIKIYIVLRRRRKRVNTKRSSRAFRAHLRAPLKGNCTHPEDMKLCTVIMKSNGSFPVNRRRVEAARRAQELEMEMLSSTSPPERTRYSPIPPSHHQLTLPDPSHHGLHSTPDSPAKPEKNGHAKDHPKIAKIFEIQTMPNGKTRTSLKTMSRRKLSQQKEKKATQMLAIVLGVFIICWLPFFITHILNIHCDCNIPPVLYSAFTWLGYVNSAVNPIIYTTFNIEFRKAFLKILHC
Beta-2 adrenergic receptor (Cavia porcellus), sequence (Q8K4Z4 whole entry, looked up): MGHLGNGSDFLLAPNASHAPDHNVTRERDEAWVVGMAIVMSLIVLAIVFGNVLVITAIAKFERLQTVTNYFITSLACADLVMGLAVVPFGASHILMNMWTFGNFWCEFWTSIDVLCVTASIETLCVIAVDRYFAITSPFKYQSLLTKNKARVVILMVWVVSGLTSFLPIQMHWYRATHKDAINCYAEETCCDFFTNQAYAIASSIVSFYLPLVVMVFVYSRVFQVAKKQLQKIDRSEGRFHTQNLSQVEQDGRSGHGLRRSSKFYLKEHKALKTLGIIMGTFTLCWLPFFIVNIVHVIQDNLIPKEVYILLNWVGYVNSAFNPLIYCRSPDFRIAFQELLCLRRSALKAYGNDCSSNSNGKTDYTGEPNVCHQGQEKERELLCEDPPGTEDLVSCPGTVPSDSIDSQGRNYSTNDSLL

Row | p[A]50 [1] | p[A]50 [2] | pKH [3] | pKL [3] | p[A]50 [4] | p[A]50 [5] | SMILES
1 | 7.89 | 7.56 | 9.01 | 6.93 | inactive |  | Oc1nc2c(O)ccc(CCNCCCCCCOCCc3ccccc3)c2s1
2 | 7.19 | 6.81 | 8.99 | 6.44 | inactive |  | Oc1nc2c(O)ccc(CCNCCCCCCNCCc3ccccc3)c2s1
3 | 7.33 | 6.85 | 9.33 | 7.11 | inactive |  | Oc1nc2c(O)ccc(CCNCCCCCCOCCCCc3ccccc3)c2s1

The remaining lines, values behind:

Row | SMILES | p[A]50 [1] | p[A]50 [2] | pKH [3] | pKL [3] | p[A]50 [4] | p[A]50 [5]
4 | OCc1cc(C(O)CNCCCCCCOCCCCc2ccccc2)ccc1O (configuration not stated) | 7.52 | 5.49 |  |  |  | 
5 | O=c1[nH]c2c(O)ccc(CCNCCS(=O)(=O)CCCOCCc3ccccc3)c2s1 | 7.95 | 6.08 | 8.61 | 6.48 |  | 8.94
6 | CCCN(CCC)CCc1ccc(O)c2nc(O)sc12 | < 5 | 6.03 | 9.34 | 6.85 |  | 9.6
